Experimental data: patent US10729130B2, “Nematicidal compositions and methods of using them” (Eden Research plc, priority 2004, dated 2020)
Several values for one entry are separate records, joined by “and”; a condition that tells them apart may be missing. Equal values may be shown once.

Legend:
Saprophagous nematodes = assay: Nematicidal activity of citral on Saprophagous nematodes (selectivity experiment); conditions: 250 ppm
Description: Living saprophagus nematodes move rapidly in water. The control used was the nematodes in water alone.
The figures given are for the percentage of nematodes found to be dead upon microscopic examination and are the average of 2 replicates.

root-knot juveniles = assay: Effect of citral alone and citral and thymol on root-knot nematode juveniles; format: in vivo; conditions: average of 2 replicates
Description: This was labelled 2500 ppm and was diluted to provide test solutions at 500, 250, 125 and 62.5 ppm.
This was marked 2500 ppm and diluted to provide test solutions at 500, 250, 125 and 62.5 ppm.
Control—Water was used as the control.
Nematode juveniles were collected in water and 0.1 to 0.15 ml added to each well of a plastic assay plate. 1.0 ml of the test solutions was added to each well. Observations were made microscopically after 24 and 48 hours as described in Example 4. […] Living nematodes move in an undulating, wave-like motion.
The results of two experiments are provided below in Tables 7 and 8.

[1] = Loading of terpenes (L-carvone) into SAF Mannan in minimal water (free terpene, flow); format: physicochemical; design: key to Free Terpene: +: “free terpene” refers to the visible presence of terpene in the centrifuged reaction mixture; −: The absence of free terpene indicates complete absorption of the terpene by the particles; key to Flow: Sl = slight; conditions: emulsion 4.64 g; for Flow: flow in inverted tubes over 15 minutes
Description: The following protocol was carried out to evaluate the possibility that terpene loading and encapsulation into YP could be carried out at a very high Yeast Particles (YP) solids level to allow for direct extrusion of the loaded formulation into a fluidised bed drier. The minimal amount of water to completely hydrate the SAF Mannan™ particles was determined to be 3.53 g water per g solids. This defines the hydrodynamic volume (HV) or water absorptive capacity of the particles. At this level of water the hydrated particles have a consistency of a stiff dough which is thixotropic, i.e. shear thinning like mayonnaise. Addition of water up to 40% above the HV results in a thick flowable paste. The standard reaction that has been used in the above examples was carried out at 3×HV water.
. Controls were the standard loading system which uses 3×HV water, particles only and terpene only reactions. Following overnight incubation samples of the mixtures were evaluated microscopically for free terpene and evidence of terpene uptake into the particles and for material flow characteristics by assessing flow in inverted tubes over 15 minutes. In addition, the presence of free oil was assessed by hydrating the reaction mixture with 5×HV, vortexing to obtain a complete dispersion of particles and centrifugation to sediment the particle encapsulated terpene. FIGS. 7 to 12 show the loading results of the following tubes: • FIG. 7—Tube 3 • FIG. 8—Tube 5 • FIG. 9—Tube 6 • FIG. 10—Tube 8 • FIG. 11—Tube 10 • FIG. 12—Tube 11

CC(C)=CCCC(C)=CC=O [Citral, citral]
% dead (Saprophagous nematodes; 24 h): 43% and 50% | % dead (Saprophagous nematodes; 48 h): 50% and 52% | percentage of nematodes dead (root-knot juveniles; Table 7 experiment, 125 ppm, 24 h): 100% | percentage of nematodes dead (root-knot juveniles; Table 7 experiment, 125 ppm, 48 h): 24% | percentage of nematodes dead (root-knot juveniles; Table 7 experiment, 250 ppm, 24 h): 100% | percentage of nematodes dead (root-knot juveniles; Table 7 experiment, 250 ppm, 48 h): 91% | percentage of nematodes dead (root-knot juveniles; Table 7 experiment, 500 ppm, 24 h): 98% | percentage of nematodes dead (root-knot juveniles; Table 7 experiment, 500 ppm, 48 h): 97% | percentage of nematodes dead (root-knot juveniles; Table 8 experiment, 62.5 ppm, 24 h): 98% | percentage of nematodes dead (root-knot juveniles; Table 8 experiment, 125 ppm, 24 h): 94% | percentage of nematodes dead (root-knot juveniles; Table 8 experiment, 250 ppm, 24 h): 94%

L-carvone
Free Terpene ([1]; Tube 1: terpene only control, no SAF, water 4.5 g): + | Free Terpene ([1]; Tube 3: SAF 1 g, water 4.5 g (standard loading, 3×HV)): − | Free Terpene ([1]; Tube 4: SAF 1 g, water —): − | Free Terpene ([1]; Tube 5: SAF 1 g, water 0.17 g): − | Free Terpene ([1]; Tube 6: SAF 1 g, water 0.35 g): − | Free Terpene ([1]; Tube 7: SAF 1 g, water 0.52 g): − | Free Terpene ([1]; Tube 8: SAF 1 g, water 0.7 g): − | Free Terpene ([1]; Tube 9: SAF 1 g, water 0.87 g): − | Free Terpene ([1]; Tube 10: SAF 1 g, water 1.05 g): − | Free Terpene ([1]; Tube 11: SAF 1 g, water 1.39 g): − | Flow ([1]; Tube 7: SAF 1 g, water 0.52 g): Sl | Flow ([1]; Tube 8: SAF 1 g, water 0.7 g): Mod | Flow ([1]; Tube 9: SAF 1 g, water 0.87 g): High | Flow ([1]; Tube 10: SAF 1 g, water 1.05 g): High | Flow ([1]; Tube 11: SAF 1 g, water 1.39 g): High
